Experimental findings from US8362000B2, “Azetidinyl diamides as monoacylglycerol lipase inhibitors” (Janssen Pharmaceutica NV, priority 2009, dated 2013) are described below.

Positions count from the first letter of the chain named. Like-named read-outs stand apart in the source and are kept apart here.

One experiment has as its target T1, MGL (Rattus norvegicus, UniProt Q8R431).
T1 construct: one g rat brain was homogenized using a Polytron homogenizer; from tissue; host or cells: rat brain homogenate
T1 sequence (Q8R431 1-303): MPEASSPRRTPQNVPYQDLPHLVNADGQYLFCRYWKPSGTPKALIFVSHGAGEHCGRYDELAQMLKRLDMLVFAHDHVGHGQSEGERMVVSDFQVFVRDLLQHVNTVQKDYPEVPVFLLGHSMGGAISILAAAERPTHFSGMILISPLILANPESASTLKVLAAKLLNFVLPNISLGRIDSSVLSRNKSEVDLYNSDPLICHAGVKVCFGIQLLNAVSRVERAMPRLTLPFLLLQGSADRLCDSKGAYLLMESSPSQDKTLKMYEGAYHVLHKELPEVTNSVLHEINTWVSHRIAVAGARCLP
As to the kind of experiment: 2-AG accumulation assay in rat brain homogenate. The settings on record: rat brain homogenate, 2-AG accumulation as percent of vehicle; for 2-AG accumulation, % of vehicle control at 1 µM: compound 1 μM, read-out: Rat Brain 2AG % VehCntrl (%) @ 1 μM. The experiment is classed as biochemical.

Another experiment has as its target T2, mutant MGL (Homo sapiens, UniProt Q99685, L169S/L176S).
T2 sequence (Q99685 1-303 L169S/L176S): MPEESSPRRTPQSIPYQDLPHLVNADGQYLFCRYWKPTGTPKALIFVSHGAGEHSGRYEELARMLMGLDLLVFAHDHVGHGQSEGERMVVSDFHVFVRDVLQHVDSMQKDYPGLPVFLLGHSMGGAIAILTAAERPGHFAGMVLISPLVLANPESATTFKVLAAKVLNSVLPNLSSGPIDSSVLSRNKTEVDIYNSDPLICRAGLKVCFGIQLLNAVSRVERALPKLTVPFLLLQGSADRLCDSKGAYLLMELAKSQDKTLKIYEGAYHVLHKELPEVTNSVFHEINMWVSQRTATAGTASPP
As to the kind of experiment: MGL ThermoFluor assay - mutant. The experiment is classed as binding. For orientation: Differential scanning fluorimetry follows unfolding on heating by fluorescence.

In experiment [1] the target is T3, purified wild type MGL (wt-MGLL 6H-11-313) (Homo sapiens, UniProt Q99685).
T3 sequence (Q99685 1-303): T2 sequence (Q99685 1-303 L169S/L176S) with S169L, S176L

Experiment [2] has as its system CFA-induced paw radiant heat hypersensitivity. As to the kind of experiment: CFA-induced paw radiant heat hypersensitivity. The experiment is classed as in vivo, rat. The settings on record: Rattus norvegicus, po, 30 mg/kg p.o., HPβCD, last time point 180 or 300 min. The protocol: Each rat was placed in a test chamber on a warm glass surface and allowed to acclimate for approximately 10 min. A radiant thermal stimulus (beam of light) was then focused through the glass onto the plantar surface of each hind paw in turn. The thermal stimulus was automatically shut off by a photoelectric relay when the paw was moved or when the cut-off time was reached (20 sec for radiant heat at ˜5 amps). An initial (baseline) response latency to the thermal stimulus was recorded for each animal prior to the injection of complete Freund's adjuvant (CFA). […] Immediately following the post-CFA latency assessment, the indicated test compound or vehicle was administered orally.
The percent reversal (% R) of hypersensitivity was calculated in one of two different ways: 1) using group mean values or 2) using individual animal values. More specifically:
Method 2. For some compounds, the % R of hypersensitivity was calculated separately for each animal according to the following formula: % reversal=[(individual treatment response−individual CFA response)/(individual baseline response−individual CFA response)]×100. Results are given as a mean of the maximum % reversal values calculated for each individual animal.

The mark [3] stands for this setting: ThermoFluor concentration-response, read-out: MGL mutant ThermoFluor Kd.
[4] abbreviates: group mean values, read-out: CFA thermal hypersensitivity Method 1: peak % reversal.
[5] abbreviates: individual animal values, read-out: CFA thermal hypersensitivity Method 2: peak % reversal.
Where [6] appears, read: ThermoFluor thermal stability binding assay, read-out: MGL mutant ThermoFluor Kd.
Setting [7] is: ThermoFluor, compound concentration measured by qNMR, read-out: MGL mutant ThermoFluor qKd (μM) (using qNMR conc.).

A word on the IC50: it is the midpoint of a concentration-inhibition curve. A lower IC50 goes with higher potency. Take `O=C(c1cccc(-c2cccc(F)c2)c1)N1CC(N2CCN(C(=O)c3nccs3)CC2)C1` [Cpd 1124]: on MGL, the 2-AG accumulation, % of vehicle control at 1 µM is 506%. For the same molecule, the Kd on mutant MGL (setting [3]) was 0.25 µM. The molecule also returned an IC50 in experiment [1] of 19 nM. The inhibition in vivo at 30 mg/kg in experiment [2] (setting [4]) worked out at 88.1%.
In the case of `O=C(c1ccc2c(ccn2-c2ncccn2)c1)N1CC(N2CCN(C(=O)c3nccs3)CC2)C1` [Cpd 1174, 1-Pyrimidin-2-yl-5-({3-[4-(1,3-thiazol-2-ylcarbonyl)piperazin-1-yl]azetidin-1-yl}carbonyl)-1H-indole], the Kd at mutant MGL (setting [3]) is 0.015 µM. The molecule also came in with an IC50 in experiment [1] of 66 nM. The inhibition in vivo at 30 mg/kg in experiment [2] (setting [4]) stood at 13.6%.
For the molecule `O=C(c1ccc(Oc2cccc(Cl)c2)c(F)c1)N1CC(N2CCN(C(=O)c3cscn3)CC2)C1` [Cpd 662], at MGL, the 2-AG accumulation, % of vehicle control at 1 µM is 274%. In addition, the Kd on mutant MGL (setting [3]) was found to be 0.1 µM. In experiment [1], the midpoint of inhibition, the IC50, lay at 11 nM. The inhibition in vivo at 30 mg/kg in experiment [2] (setting [4]) is 21%; in experiment [2] (setting [5]), 24%.
As for `O=C(c1cscn1)N1CCN(C2CN(C(=O)c3sc4cc(C(F)(F)F)c(F)cc4c3Cl)C2)CC1` [Cpd 666], the 2-AG accumulation, % of vehicle control at 1 µM at MGL was 359%. In addition, the results for the Kd at mutant MGL (setting [6]) and on mutant MGL (setting [7]) were 0.002 µM and 0.003 µM, respectively. In experiment [1], this molecule registered an IC50 of 13 nM. In addition, the inhibition in vivo at 30 mg/kg in experiment [2] (setting [4]) was -3.1%.
Turning to `O=C(c1ccc2nc(-c3ccccc3)sc2c1)N1CC(N2CCN(C(=O)c3nccs3)CC2)C1` [Cpd 1125, 2-Phenyl-6-({3-[4-(1,3-thiazol-2-ylcarbonyl)piperazin-1-yl]azetidin-1-yl}carbonyl)-1,3-benzothiazole], the Kd on mutant MGL (setting [3]) was determined as 0.037 µM. In addition, it took 19 nM to reach half-maximal inhibition in experiment [1] (IC50). The inhibition in vivo at 30 mg/kg in experiment [2] (setting [4]) was 64.5%; in experiment [2] (setting [5]), 90.3%.
In the case of `Cc1cn(-c2ccccc2)c2ccc(C(=O)N3CC(N4CCN(C(=O)c5nccs5)CC4)C3)cc12` [Cpd 1054], the Kd on mutant MGL (setting [6]) and at mutant MGL (setting [7]) was 0.001 µM in each case. For the same molecule, in experiment [1], it took 5 nM to reach half-maximal inhibition (IC50). Moreover, in experiment [2] (setting [4]), the inhibition in vivo at 30 mg/kg stood at 27.6%.
For the molecule `O=C(c1ccc2c(ccn2-c2ccc(F)cc2)c1)N1CC(N2CCN(C(=O)c3cscn3)CC2)C1` [Cpd 1358, 1-(4-Fluorophenyl)-5-({3-[4-(1,3-thiazol-4-ylcarbonyl)piperazin-1-yl]azetidin-1-yl}carbonyl)-1H-indole], the Kd on mutant MGL (setting [3]) turned out to be 0.007 µM. For the same molecule, the IC50 in experiment [1] is < 5 nM. Also, the inhibition in vivo at 30 mg/kg in experiment [2] (setting [4]) stood at 25.4%.
For the molecule `O=C(c1ccc2c(cnn2-c2ccc(F)c(F)c2)c1)N1CC(N2CCN(C(=O)c3nccs3)CC2)C1` [Cpd 1106, 1-(3,4-Difluorophenyl)-5-({3-[4-(1,3-thiazol-2-ylcarbonyl)piperazin-1-yl]azetidin-1-yl}carbonyl)-1H-indazole], the 2-AG accumulation, % of vehicle control at 1 µM at MGL is 784%. In addition, in experiment [2] (setting [4]), the inhibition in vivo at 30 mg/kg was 45%.
For `O=C(c1ccc2oc(-c3ccccc3)nc2c1)N1CC(N2CCN(C(=O)c3nccs3)CC2)C1` [Cpd 317, 2-Phenyl-5-({3-[4-(1,3-thiazol-2-ylcarbonyl)piperazin-1-yl]azetidin-1-yl}carbonyl)-1,3-benzoxazole], at MGL, the 2-AG accumulation, % of vehicle control at 1 µM turned out to be 417%. Moreover, the inhibition in vivo at 30 mg/kg in experiment [2] (setting [4]) was determined as 43%.
As for `O=C(c1ccc2c(ccn2-c2ccc(C(F)(F)F)cc2)c1)N1CC(N2CCN(C(=O)c3cscn3)CC2)C1` [Cpd 1359, 5-({3-[4-(1,3-Thiazol-4-ylcarbonyl)piperazin-1-yl]azetidin-1-yl}carbonyl)-1-[4-(trifluoromethyl)phenyl]-1H-indole], the Kd at mutant MGL (setting [3]) was found to be 0.008 µM. Besides, the IC50 in experiment [1] was < 5 nM. The figures for the inhibition in vivo at 30 mg/kg in experiment [2] (setting [4]) and in experiment [2] (setting [5]) were 5.1% and 12.7%, respectively.
For the molecule `O=C(c1nccs1)N1CCN(C2CN(C(=O)c3sc4cc(Br)ccc4c3Cl)C2)CC1` [Cpd 326, 1-{1-[(6-Bromo-3-chloro-1-benzothiophen-2-yl)carbonyl]azetidin-3-3yl}-4-(1,3-thiazol-2-ylcarbonyl)piperazine], at mutant MGL (setting [6]), the Kd is 0.0004 µM. Also, the IC50 in experiment [1] is < 5 nM. The inhibition in vivo at 30 mg/kg stood at 17.3% in experiment [2] (setting [4]) and 17.5% in experiment [2] (setting [5]).
Regarding `O=C(c1ccc2c(ccn2-c2ccc(C(F)(F)F)cc2)c1)N1CC(N2CCN(C(=O)c3nccs3)CC2)C1` [Cpd 1357, 5-({3-[4-(1,3-Thiazol-2-ylcarbonyl)piperazin-1-yl]azetidin-1-yl}carbonyl)-1-[4-(trifluoromethyl)phenyl]-1H-indole], at mutant MGL (setting [3]), the Kd was 0.002 µM. For the same molecule, in experiment [1], the IC50 is < 5 nM. For the same molecule, the inhibition in vivo at 30 mg/kg in experiment [2] (setting [4]) is 51%; in experiment [2] (setting [5]) it was 46.1%.
As to `Cn1cc(-c2ccccc2)c2ccc(C(=O)N3CC(N4CCN(C(=O)c5nccs5)CC4)C3)cc21` [Cpd 1132, 1-Methyl-3-phenyl-6-({3-[4-(1,3-thiazol-2-ylcarbonyl)piperazin-1-yl]azetidin-1-yl}carbonyl)-1H-indole], the Kd on mutant MGL (setting [3]) amounted to 0.002 µM. The molecule also yielded an IC50 in experiment [1] of 23 nM. For the same molecule, the inhibition in vivo at 30 mg/kg in experiment [2] (setting [4]) is 0%.
Turning to `Cc1cn(-c2ccc(F)cc2)c2ccc(C(=O)N3CC(N4CCN(C(=O)c5nccs5)CC4)C3)cc12` [Cpd 1088, 1-(4-Fluorophenyl)-3-methyl-5-({3-[4-(1,3-thiazol-2-ylcarbonyl)piperazin-1-yl]azetidin-1-yl}carbonyl)-1H-indole], the 2-AG accumulation, % of vehicle control at 1 µM at MGL was 760%. In addition, the Kd on mutant MGL (setting [6]) was found to be 0.001 µM. Moreover, in experiment [2] (setting [4]), the inhibition in vivo at 30 mg/kg was determined as 35.3%.
For `O=C(c1ccccc1)N1CCN(C2CN(C(=O)c3ccc(-c4ccc(Cl)c(C(F)(F)F)c4)cc3)C2)CC1` [Cpd 232, 1-(1-{[4′-Chloro-3′-(trifluoromethyl)biphenyl-4-yl]carbonyl}azetidin-3-yl)-4-(phenylcarbonyl)piperazine], at MGL, the 2-AG accumulation, % of vehicle control at 1 µM was 152%. In addition, the 2-AG accumulation, % of vehicle control at 10 µM on MGL (compound 10 μM, read-out: Rat Brain 2AG % VehCntrl (%) @ 10 μM) turned out to be 427%. In addition, inhibition in experiment [1] was half-maximal at 82.9 nM (IC50). The inhibition in vivo at 30 mg/kg is 9.6% in experiment [2] (setting [4]) and 8% in experiment [2] (setting [5]).
Consider `Cc1c(C(=O)N2CC(N3CCN(C(=O)c4nccs4)CC3)C2)sc2cc(C(F)(F)F)ccc12` [Cpd 899, 1-(1-{[3-Methyl-6-(trifluoromethyl)-1-benzothiophen-2-yl]carbonyl}azetidin-3-yl)-4-(1,3-thiazol-2-ylcarbonyl)piperazine], for which the IC50 in experiment [1] was < 5 nM. For the same molecule, the inhibition in vivo at 30 mg/kg in experiment [2] (setting [4]) amounted to 80.1%.
For `O=C(c1ccc2c(-c3cccc(C(F)(F)F)c3)c[nH]c2c1)N1CC(N2CCN(C(=O)c3nccs3)CC2)C1` [Cpd 1341, 6-({3-[4-(1,3-Thiazol-2-ylcarbonyl)piperazin-1-yl]azetidin-1-yl}carbonyl)-3-[3-(trifluoromethyl)phenyl]-1H-indole], the Kd on mutant MGL (setting [3]) worked out at 0.001 µM. The IC50 in experiment [1] is < 5 nM. The inhibition in vivo at 30 mg/kg in experiment [2] (setting [4]) is 7.5%.
As for `O=C(c1nccs1)N1CCN(C2CN(C(=O)c3sc4c(F)c(C(F)(F)F)ccc4c3Cl)C2)CC1` [Cpd 650], the 2-AG accumulation, % of vehicle control at 1 µM at MGL was 960%. Further, inhibition in experiment [1] was half-maximal at 6 nM (IC50). Moreover, in experiment [2] (setting [4]), the inhibition in vivo at 30 mg/kg came out at 29.9%.
